Converted amounts (≈) assume the structure as drawn.
Experiments:
[1] = system: ERK phosphorylation in A375 cells (K-RAS4B^wt); test: HTRF ERK phosphorylation assay in A375 cells; type: cell-based; settings: Homo sapiens, A-375; A375 cells (K-RAS4B^wt, BRAF mutation); two determinations; read-out: A375 pERK inhibition IC50
Experimental: (§1) For selected betulinic acid derivatives quantitative ERK and AKT phosphorylation was measured in SNU-1 (K-RAS4B^G12D) and A375 cells (K-RAS4B^wt) to determine whether pentacyclic triterpenes act via the RAS-RAF-MEK-ERK or the RAS-PI3K-PDK1-AKT downstream cascade (Table 2). The betulinic acid derivatives tested, had no activity on the ERK pathway, but inhibited AKT phosphorylation with micromolar IC50 values in agreement with literature reports.[50,51] […] No activity was detected in A375 cells carrying a BRAF but no K-RAS mutation.
(§2) SNU-1 cells harbouring the K-RASG12D mutation (primary carcinoma of the stomach), were grown in RPMI medium with 10% FBS (fetal bovine serum) and 1% L-Gln. Cells were plated in white small volume cell culture 384 well microplates (Greiner BioOne GmbH) at a density of 50.000 cells per well/6 μL in RPMI medium with 1% L-glut (serum-free medium). The plated cells were placed in a high humidity incubator (37 °C, 5% CO2 and 90% humidity) to avoid evaporation of the small amount of medium for 3 hours before the compounds were added. With the Echo520 liquid handler the cells were treated with a 3-fold 8-point serial dilution of the compounds, with a top final concentration of 330 μM and a final DMSO concentration of 1%. After compound transfer, cells were incubated for 1 hour in the high humidity incubator before the cells were treated with 3 μL of 9 nM EGF diluted in serum-free medium (final EGF concentration in the well 3 nM) for 15 minutes. The lysis buffer from the Phospho-ERK 1/2 (Thr202/Tyr204)- and the Total ERK1/2 LANCE Ultra TR-FRET Cellular Detection Kit (PerkinElmer Inc.) was prepared to a 4-fold concentration in water. Then 3 μL of the lysis buffer were added to each well and the plates were shaken at 300 rpm for 30 minutes at room temperature. During this incubation the antibody detection mix was prepared according to the manufacturer's protocol. In the final step 3 μL of antibody detection mix were added to each well. The plates were sealed with an aluminium sticky foil and incubated over night at room temperature for 20 hours. The detection was performed with the EnVision2104 Multilabel Reader.

[2] = Solubility
[3] = system: AKT phosphorylation in SNU-1 cells (K-RAS4B^G12D); test: HTRF AKT phosphorylation assay in SNU-1 cells; type: cell-based; settings: Homo sapiens, SNU1, read-out: SNU-1 pAKT inhibition IC50
Experimental: as §1, §2

[4] = system: a series of cancer cell lines; set-up: method as in PMID 25909174; settings: read-out: cytotoxic IC50 against a series of cancer cell lines; cited from earlier work
[5] = target: K-RAS4B G12V (Homo sapiens, UniProt P01116, G12V); test: Nucleotide exchange assay (SOS1-mediated GDP/GTP exchange, GDP-Glo), K-RAS4B G12V; type: biochemical; settings: eight data points, at least three determinations, (*) single determination
K-RAS4B G12V, sequence (P01116 1-188 isoform P01116-2 G12V): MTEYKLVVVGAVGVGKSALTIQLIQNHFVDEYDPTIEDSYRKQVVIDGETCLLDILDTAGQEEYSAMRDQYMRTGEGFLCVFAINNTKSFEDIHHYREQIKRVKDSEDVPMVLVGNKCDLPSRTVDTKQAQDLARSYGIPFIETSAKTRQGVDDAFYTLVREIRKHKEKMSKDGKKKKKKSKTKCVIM

[6] = target: K-RAS4B wild-type (Homo sapiens, UniProt P01116); test: Nucleotide exchange assay (SOS1-mediated GDP/GTP exchange, GDP-Glo), K-RAS4B wild-type; type: biochemical; settings: K-RAS4B GDP/GTP exchange; eight data points, at least three determinations; (*) single determination
K-RAS4B wild-type (Homo sapiens, UniProt P01116), sequence (P01116 1-188 isoform P01116-2): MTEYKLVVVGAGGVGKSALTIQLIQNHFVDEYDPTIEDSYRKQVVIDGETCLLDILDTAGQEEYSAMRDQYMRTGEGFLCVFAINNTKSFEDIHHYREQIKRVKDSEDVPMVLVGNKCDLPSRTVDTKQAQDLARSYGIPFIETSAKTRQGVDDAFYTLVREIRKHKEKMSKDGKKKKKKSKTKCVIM

[7] = system: AKT phosphorylation in A375 cells (K-RAS4B^wt); test: HTRF AKT phosphorylation assay in A375 cells; type: cell-based; settings: Homo sapiens, A-375; A375 cells (K-RAS4B^wt, BRAF mutation); two determinations; read-out: A375 pAKT inhibition IC50
Experimental: as §1, §2

[8] = system: ERK phosphorylation in SNU-1 cells (K-RAS4B^G12D); test: HTRF ERK phosphorylation assay in SNU-1 cells; type: cell-based; settings: Homo sapiens, SNU1, read-out: SNU-1 pERK inhibition IC50
Experimental: as §1, §2

[9] = target: T1, K-RAS4B^G12D (Homo sapiens, UniProt P01116, G12D); test: biochemical; settings: K-RAS4B GDP/GTP exchange; eight data points, at least three determinations
Target sequence in this assay (P01116 1-188 isoform P01116-2 G12D): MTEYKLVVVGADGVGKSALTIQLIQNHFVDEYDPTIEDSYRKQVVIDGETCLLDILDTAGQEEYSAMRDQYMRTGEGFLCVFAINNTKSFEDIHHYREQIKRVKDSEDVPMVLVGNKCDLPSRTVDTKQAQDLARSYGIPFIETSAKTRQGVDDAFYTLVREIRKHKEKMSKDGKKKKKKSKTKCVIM

[10] = target: T1, K-RAS4B^G12D; test: cell-based; set-up: a fusion protein of LgBiT and full-length RAS; a fusion protein of SmBiT(q) and full-length RAS in cells; expressed in transfected cells; host or cells: HEK239T (so in the source); settings: live cells; displacement of BI2852 from the K-Ras4B SI/II binding-site; read-out: K-RAS4B^G12D NanoBRET TE KD
Excerpt: (§3) To obtain further information on the mode of action, selected GDP/GTP exchange inhibitors were studied in additional assays (Table 3). A target engagement assay, which is based on bioluminescence resonance energy transfer (BRET), was used to measure target engagement at protein complexes in live cells (Fig. 5a). The BRET effect results from an energy transfer between the target luciferase fusion protein and a cell-permeable fluorescent tracer in intact cells.
(§4) Fig. 5 Schematic illustrations of the RAS cellular target engagement and RAS:SOS protein–protein interaction assay. (a) NanoBRET target engagement (TE) assay: when the fusion proteins LgBiT-RAS and SmBiT(q)-RAS interact in live-cells, they form an active luciferase as a BRET donor. The BRET receptor is a fluorescent NanoBRET® tracer that binds specifically to K-RAS. K-RAS binders displace the tracer and reduce the BRET signal in a dose-dependent manner.
(§5) The NanoBRET® TE Intracellular RAS Assay uses NanoBiT® Technology, a structural complementation system comprised of a large luciferase subunit (LgBiT) and a small complementary peptide (SmBiT(q)). Specifically, a fusion protein of LgBiT and full-length RAS is co-expressed with a fusion protein of SmBiT(q) and full-length RAS in cells. When the RAS proteins interact and form multimers, the LgBiT and SmBiT(q) subunits come together to form an active luciferase enzyme that serves as the BRET donor. The energy acceptor is a cell-permeable fluorescent NanoBRET® tracer that binds specifically to RAS. […] After mixing the plate for 1 min and incubation at room temperature for 15 min 1 μL of NanoBRET TE RAS Tracer 01 (final concentration 1 μM) was added followed by another mixing step. After 2 h incubation (37 °C, 5% CO2) and 15 min at room temperature 5 μL of NanoBRET™ Nano-Glo® substrate was added followed by a mixing step.
Target sequence in this assay (P01116 1-188 isoform P01116-2 G12D): as above
Target sequence in this assay (P01116 1-188 isoform P01116-2 G12D): as above

[11] = target: (GTP)K-RAS4B^wt:SOS1 complex (Homo sapiens, UniProt P01116+Q07889); test: HTRF K-RAS^wt:SOS protein-protein interaction assay
(GTP)K-RAS4B^wt:SOS1 complex, sequence (P01116 1-188 isoform P01116-2, one chain of several): as the sequence (P01116 1-188 isoform P01116-2) above
Experimental: The interaction of (GTP)K-RAS4B^wt and SOS was measured with a HTRF assay using an SOS-specific antibody labeled with terbium cryptate as HTRF (homogeneous time-resolved fluorescence) donor and a K-RAS4B^wt specific antibody labeled with an HTRF acceptor (XL665).[52]
To test the compounds effect on the interaction of K-RAS and SOS1 proteins a commercial assay from Revvity (product code 64[sequence]) was used. The K-RAS WT/SOS1 PPI assay includes tagged human recombinant partners (K-RAS WT and SOS1) and labelled anti-tag reagents for HTRF detection. Without an inhibitor, K-RAS WT loaded with GTP binds to SOS1, and the binding of each detection reagent to its tagged target generates an HTRF signal. In the presence of K-RAS WT/SOS1 inhibitors or GTP competitors, the HTRF signal decreases.
After an incubation step for 10 min at room temperature 3 μL Tag1-KRAS protein was added followed by 7.5 μL detection mix containing anti-Tag2 antibody labeled with Terbium cryptate and anti-Tag1 antibody labeled with XL665. […] IC50 values were determined from the sigmoidal dose response curves with the Scigilian Analyze software (Scigilian, Monteral, Canada).

[12] = target: T2, K-RAS4B^wt (Homo sapiens, UniProt P01116); test: NanoBRET target engagement assay, K-RAS4B^wt (displacement of BI2852 tracer from SI/SII site); type: cell-based; settings: live cells; displacement of BI2852 from the K-Ras4B SI/II binding-site; read-out: K-RAS4B^wt NanoBRET TE KD
T2 construct: a fusion protein of LgBiT and full-length RAS; a fusion protein of SmBiT(q) and full-length RAS in cells; expressed in transfected cells; host or cells: HEK239T (so in the source)
T2 sequence (P01116 1-188 isoform P01116-2): as above
T2 sequence (P01116 1-188 isoform P01116-2): as above
Excerpt: as §3, §4, §5

[13] = target: T1, K-RAS4B^G12D; test: Surface plasmon resonance (SPR), K-RAS4B^G12D; type: binding; settings: K-RAS4B^G12D alone
Target sequence in this assay (P01116 1-188 isoform P01116-2 G12D): as the sequence (P01116 1-188 isoform P01116-2 G12D) above

[14] = system: K-RAS4B wild-type; test: Nucleotide exchange assay (SOS1-mediated GDP/GTP exchange, GDP-Glo), K-RAS4B wild-type; type: biochemical; settings: GDP/GTP exchange IC50 of wild-type versus G12D/G12V mutants
[15] = target: T3, SOS (Homo sapiens, UniProt Q07889); test: Surface plasmon resonance (SPR), SOS; type: binding; settings: SOS alone
T3 sequence (Q07889 1-1333): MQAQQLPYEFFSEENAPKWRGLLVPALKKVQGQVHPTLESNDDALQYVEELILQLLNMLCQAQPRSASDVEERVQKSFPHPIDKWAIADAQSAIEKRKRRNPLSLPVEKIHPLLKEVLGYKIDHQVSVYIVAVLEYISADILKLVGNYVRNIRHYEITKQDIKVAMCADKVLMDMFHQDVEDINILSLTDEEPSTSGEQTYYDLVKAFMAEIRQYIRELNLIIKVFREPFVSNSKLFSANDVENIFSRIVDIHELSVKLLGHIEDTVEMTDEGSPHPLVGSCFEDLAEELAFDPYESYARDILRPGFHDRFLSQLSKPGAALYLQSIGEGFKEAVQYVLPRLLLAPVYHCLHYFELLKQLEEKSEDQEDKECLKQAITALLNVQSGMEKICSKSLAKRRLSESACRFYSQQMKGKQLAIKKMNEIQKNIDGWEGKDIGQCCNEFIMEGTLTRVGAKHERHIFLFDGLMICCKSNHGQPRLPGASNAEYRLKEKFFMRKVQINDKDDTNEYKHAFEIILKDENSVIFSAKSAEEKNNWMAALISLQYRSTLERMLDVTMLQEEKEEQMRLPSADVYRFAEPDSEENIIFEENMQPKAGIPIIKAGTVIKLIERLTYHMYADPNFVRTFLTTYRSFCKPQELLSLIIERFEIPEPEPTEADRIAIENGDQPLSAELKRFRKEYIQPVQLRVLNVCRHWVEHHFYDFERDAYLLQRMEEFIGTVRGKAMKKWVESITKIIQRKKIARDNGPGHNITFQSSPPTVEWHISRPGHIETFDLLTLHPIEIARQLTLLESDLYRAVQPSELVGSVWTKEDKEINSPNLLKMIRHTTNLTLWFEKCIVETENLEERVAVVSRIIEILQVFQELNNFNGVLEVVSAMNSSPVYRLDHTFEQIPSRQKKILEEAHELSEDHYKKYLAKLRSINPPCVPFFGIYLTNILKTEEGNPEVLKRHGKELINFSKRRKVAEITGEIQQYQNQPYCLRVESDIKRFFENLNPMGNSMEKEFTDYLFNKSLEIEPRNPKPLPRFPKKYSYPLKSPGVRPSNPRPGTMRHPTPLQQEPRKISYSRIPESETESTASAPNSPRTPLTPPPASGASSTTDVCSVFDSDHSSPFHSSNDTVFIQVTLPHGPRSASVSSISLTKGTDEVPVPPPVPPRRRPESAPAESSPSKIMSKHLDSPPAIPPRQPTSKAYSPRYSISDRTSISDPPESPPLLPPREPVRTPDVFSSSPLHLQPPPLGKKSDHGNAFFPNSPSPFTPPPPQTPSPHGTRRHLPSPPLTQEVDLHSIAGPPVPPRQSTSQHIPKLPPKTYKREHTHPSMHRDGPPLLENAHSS

SMILES | IC50 [1] [µM] | solubility [2] [µM] | IC50 [3] [µM] | IC50 [4] [µM] | IC50 [5] [µM] | IC50 [6] [µM] | IC50 [7] [µM] | IC50 [8] [µM] | IC50 [9] [µM] | Kd [10] [µM] | Kd [11] [µM] | Kd [12] [µM] | Kd [13] [µM] | selectivity factor, mutant versus K-RAS4B^wt [14] | Kd [15] [µM]
C=C(C)[C@@H]1CC[C@]2(C(=O)O)CC[C@]3(C)[C@H](CC[C@@H]4[C@@]5(C)CC[C@H](OC(=O)c6ccccc6C(=O)O)C(C)(C)[C@@H]5CC[C@]43C)[C@@H]12 [Compound 19] | > 1000 | 191 (≈ 116 µg/mL) | 19 | ≤ 10 | 16.6 ± 5.2 | 15.3 ± 3.8 | > 1000 | > 300 | 10.4 ± 4.7 |  |  |  |  |  | 
C=C(C)[C@@H]1CC[C@]2(C(=O)O)CC[C@]3(C)[C@H](CC[C@@H]4[C@@]5(C)CC[C@H](OC(=O)c6sccc6C(=O)O)C(C)(C)[C@@H]5CC[C@]43C)[C@@H]12 [Compound 18] |  | 255 (≈ 156 µg/mL) |  |  |  | 1.27 ± 0.69 |  |  | 1.83 ± 1.45 | 20.1 | > 50 | 21.8 |  |  | 
C=C(C)[C@@H]1CC[C@]2(C(=O)O)CC[C@]3(C)[C@H](CC[C@@H]4[C@@]5(C)CC[C@H](OC(=O)CC(C)(C)C(=O)O)C(C)(C)[C@@H]5CC[C@]43C)[C@@H]12 [Compound 28, bevirimat, reference compound] |  |  |  |  | 0.61 ± 0.14 | 2.15 ± 0.17 |  |  | 0.59 ± 0.19 |  |  |  | > 300 | 3–4 | > 1000
COc1cc(C(=O)O)c(C(=O)OC2CCC3(C)C(CCC4(C)C3CC=C3C5CC(C)(C)CCC5(C(=O)O)CCC34C)C2(C)C)cc1OC (stereo not shown) [Compound 47] |  | 302 (≈ 201 µg/mL) |  |  | 2.9 ± 0.51 | 2.71 ± 1.3 |  |  | 1.61 ± 0.85 | > 50 | > 50 | 39 |  |  | 
C=C(C)[C@@H]1CC[C@]2(COC(=O)CCC(=O)O)CC[C@]3(C)[C@H](CC[C@@H]4[C@@]5(C)CC[C@H](OC(=O)CCC(=O)O)C(C)(C)[C@@H]5CC[C@]43C)[C@@H]12 [Compound 32] |  |  |  |  | 1.37 ± 0.28 | 1.01 ± 0.31 |  |  | 0.71 ± 0.18 | 29.1 | > 100 | 40.8 |  |  | 
